Literature values, collected in patent US9242010B2, “Living copolymer-protein/peptide hybrids for biomedical applications” (Research Foundation of The City University of New York, priority 2008, dated 2016).
One block for each molecule: values may come before it.

Key:
[1] = system: avidin/streptavidin; conditions: interaction of avidin/streptavidin with biotin
[2] = background statement

Compound: O=C(O)CCCC[C@@H]1SC[C@@H]2NC(=O)N[C@@H]21 [biotin]
Ka [1]: > 10^14

water and plasma solubility [2]: poor
Compound: COc1cc(/C=C/C(=O)CC(=O)/C=C/c2ccc(O)c(OC)c2)ccc1O [curcumin, (1E,6E)-1,7-bis(4-hydroxy-3-methoxyphenyl)hepta-1,6-diene 3,5-dione]

water solubility [2]: not water soluble
Compound: CC(=O)O[C@H]1C(=O)[C@@]2(C)[C@H]([C@H](OC(=O)c3ccccc3)[C@]3(O)C[C@H](OC(=O)[C@H](O)[C@@H](NC(=O)c4ccccc4)c4ccccc4)C(C)=C1C3(C)C)[C@]1(OC(C)=O)CO[C@@H]1C[C@@H]2O [taxol]
